ChEMBL document CHEMBL1139709, “6-Hydroxy- and 6-methoxy-beta-carbolines as acetyl- and butyrylcholinesterase inhibitors” (Bioorg Med Chem Lett, 2006)

What was measured:
[1] = target: Acetylcholinesterase (Homo sapiens, UniProt P22303); experiment: Inhibition of AChE
[2] = target: Cholinesterase (Homo sapiens, UniProt P06276); experiment: Inhibition of BChE
Chain of Cholinesterase (P06276 whole entry): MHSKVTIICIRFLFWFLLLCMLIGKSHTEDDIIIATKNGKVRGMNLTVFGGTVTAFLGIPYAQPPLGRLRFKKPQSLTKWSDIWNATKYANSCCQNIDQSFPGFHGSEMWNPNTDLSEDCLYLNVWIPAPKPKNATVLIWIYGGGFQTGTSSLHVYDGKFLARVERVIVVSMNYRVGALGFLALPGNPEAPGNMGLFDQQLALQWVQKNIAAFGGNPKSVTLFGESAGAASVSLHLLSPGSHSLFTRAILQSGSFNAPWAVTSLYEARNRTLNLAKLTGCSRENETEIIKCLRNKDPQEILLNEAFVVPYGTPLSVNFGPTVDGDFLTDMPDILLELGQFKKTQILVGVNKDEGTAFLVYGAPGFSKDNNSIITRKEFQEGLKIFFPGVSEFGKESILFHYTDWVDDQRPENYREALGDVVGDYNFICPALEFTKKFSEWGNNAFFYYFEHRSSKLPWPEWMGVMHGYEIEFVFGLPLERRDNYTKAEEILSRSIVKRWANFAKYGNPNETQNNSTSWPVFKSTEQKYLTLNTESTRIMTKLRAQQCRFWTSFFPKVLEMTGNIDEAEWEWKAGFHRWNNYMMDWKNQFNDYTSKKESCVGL

Chain of Acetylcholinesterase (P22303 whole entry): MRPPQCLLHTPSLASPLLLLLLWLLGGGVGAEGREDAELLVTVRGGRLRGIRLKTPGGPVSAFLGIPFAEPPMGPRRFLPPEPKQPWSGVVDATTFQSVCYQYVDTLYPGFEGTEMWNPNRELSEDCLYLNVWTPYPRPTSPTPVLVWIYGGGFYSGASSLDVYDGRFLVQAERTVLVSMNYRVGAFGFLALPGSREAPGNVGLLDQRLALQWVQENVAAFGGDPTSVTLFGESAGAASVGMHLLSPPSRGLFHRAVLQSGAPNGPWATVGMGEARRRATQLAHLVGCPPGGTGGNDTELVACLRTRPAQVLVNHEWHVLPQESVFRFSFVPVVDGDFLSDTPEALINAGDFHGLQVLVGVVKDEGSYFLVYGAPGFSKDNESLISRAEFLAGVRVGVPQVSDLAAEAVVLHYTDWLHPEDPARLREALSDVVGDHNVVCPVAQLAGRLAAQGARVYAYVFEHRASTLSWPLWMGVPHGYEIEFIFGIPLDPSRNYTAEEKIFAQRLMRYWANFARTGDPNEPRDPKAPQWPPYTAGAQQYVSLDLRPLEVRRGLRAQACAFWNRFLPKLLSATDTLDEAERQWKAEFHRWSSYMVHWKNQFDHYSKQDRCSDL

| Compound | IC50 ([1]; read-out: IC50) | IC50 ([2]; read-out: IC50) | IC50 ([2]; read-out: Log IC50 (converted)) | IC50 ([1]; read-out: Log IC50 (converted)) |
| --- | --- | --- | --- | --- |
| COc1ccc2[nH]c3c(c2c1)CCNC3C (stereo not drawn) [ADRENOGLOMERULOTROPIN] | > 10 µM | > 10 µM | – | – |
| COc1ccc2c(c1)c1ccncc1n2C | > 10 µM | > 10 µM | – | – |
| Cn1c2ccc(O)cc2c2cc[n+](C)cc21 | 1.8 µM | 32.2 µM | – | – |
| COc1ccc2[nH]c3c(C)nccc3c2c1 | > 10 µM | > 10 µM | – | – |
| Cc1c2c(cc[n+]1C)c1cc(O)ccc1n2C | 1.9 µM | 2.7 µM | – | – |
| Cc1nccc2c1[nH]c1ccc(O)cc12 | > 10 µM | > 10 µM | – | – |
| Cc1c2[nH]c3ccc(O)cc3c2cc[n+]1C | 1 µM | 1.6 µM | – | – |
| COc1ccc2[nH]c3c(C)[n+](C)ccc3c2c1 | 0.8 µM | 1.2 µM | 1.1 µM | – |
| COc1ccc2[nH]c3c(c2c1)CCNC3 | > 10 µM | > 10 µM | – | – |
| Oc1ccc2[nH]c3cnccc3c2c1 | > 10 µM | > 10 µM | – | – |
| COc1ccc2c(c1)c1ccnc(C)c1n2C | 11.8 µM | 17.4 µM | – | – |
| COc1ccc2c(c1)c1cc[n+](C)cc1n2C | 1.3 µM | 20.9 µM | – | 1.4 µM |
| Cc1nccc2c3cc(O)ccc3n(C)c12 | > 10 µM | > 10 µM | – | – |
| COc1ccc2[nH]c3c[n+](C)ccc3c2c1 | 2.2 µM | 17.5 µM | – | – |
| COc1ccc2[nH]c3cnccc3c2c1 | > 10 µM | > 10 µM | – | – |
| COc1ccc2c(c1)c1cc[n+](C)c(C)c1n2C | > 10 µM | > 10 µM | – | – |
| C[n+]1ccc2c(c1)[nH]c1ccc(O)cc12 | 4.2 µM | 8.7 µM | – | – |
| Cn1c2ccc(O)cc2c2ccncc21 | > 10 µM | > 10 µM | – | – |
